One molecule from patent US6124291A, “Pyrrolo[1,2-a]pyrazine-1,4-dione serine protease inhibitors” (Warner-Lambert Company, priority 1998, dated 2000) can be followed below.

Molecules are shown by their SMILES.

The term IC50 denotes the concentration that gives 50% inhibition. A high value points to weaker potency. Usually Ki stands for the dissociation constant of the complex between target and ligand, obtained from inhibition or displacement.

In one assay the target is T1, trypsin (Bos taurus, UniProt P00760).
T1 sequence (P00760 24-246): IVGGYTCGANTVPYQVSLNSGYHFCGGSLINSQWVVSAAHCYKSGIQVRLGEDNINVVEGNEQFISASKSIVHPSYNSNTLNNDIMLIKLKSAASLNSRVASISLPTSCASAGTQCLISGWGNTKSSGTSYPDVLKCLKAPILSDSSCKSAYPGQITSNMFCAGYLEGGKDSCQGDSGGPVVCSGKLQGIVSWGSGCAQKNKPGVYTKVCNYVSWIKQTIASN
The experiment in a line: Determination of Trypsin IC50 (chromogenic substrate S2222). The following applies: 60 minutes incubation at room temperature. The assay is classed as biochemical. The method, then: The ability of compounds to act as inhibitors of trypsin catalytic activity is assessed by determination of that concentration of test substance that inhibits by 50% (IC50) the ability of trypsin to cleave the chromogenic substrate S2222 (N-Bz-L-Ile-L-Glu-L-Gly-L-Arg-p-nitroanilide.cndot.HCl). Typically, trypsin in 10 mM HEPES, 100 mM NaCl, 0.05% BSA, and 0.1% PEG-8000, and the test substance in DMSO are incubated for 60 minutes at room temperature. To this mixture is added S2222 and the velocity of S2222 hydrolysis measured by observing the intensity of absorbance at 405 nm over 5 minutes.

The next assay deals with carotid artery. In words: FeCl3-induced carotid arterial injury model (arterial thrombosis). In kind it is in vivo, rat (male Sprague-Dawley). The note with it: rat; IV bolus 0.75 mg/kg then IV infusion 50 μg/kg/min; time to occlusion in drug-treated divided by control; 60 minutes monitoring. As for the experimental part:
The FeCl3-- induced injury to the carotid artery in rats was induced according to the method described by Kurz K. D., Main R. W., Sandusky G. E., Thrombosis Research, 1990; 60:269-280 and Schumacher W. A., et al., J. Pharmacology and Experimental Therapeutics, 1993; 267:1237-1242.
Male, Sprague-Dawley rats (375-410 g) were anesthetized with urethane (1500 mg/kg ip). Animals were laid on a 37° C. heating pad. The carotid artery was exposed through a midline cervical incision. Careful blunt dissection was used to isolate the vessel from the carotid sheath. Using forceps, the artery was lifted to provide sufficient clearance to insert two small pieces of polyethylene tubing (PE-205) underneath it. A temperature probe (Physitemp MT23/3) was placed between one of the pieces of tubing and the artery. Injury was induced by topical application on the carotid artery above the temperature probe of a small disc (3 mm dia.) of Whatman No. 1 filter paper previously dipped in a 35% solution of FeCl3. […] The vessel temperature was monitored for 60 minutes after application of FeCl3 as an indication of blood flow. Vessel temperature changes were recorded on a thermistor (Cole-Palmer Model 08533-41).
The time between the FeCl3 application and the time at which the vessel temperature decreased abruptly (>2.4° C.) was recorded as the time to occlusion of the vessel. […]

A further assay concerns the target human thrombin (Homo sapiens, UniProt P00734). The experiment in a line: Determination of Thrombin Ki (fluorogenic substrate Tos-Gly-Pro-Arg-AMC). The assay is classed as biochemical. The note with it: 50 mM Tris-HCl pH 7.52 at 37° C., 0.1 M NaCl, 0.1% poly(ethylene glycol) 8000, room temperature. As for the experimental part: Compounds of the present invention may be prepared for assay by dissolving them in buffer to give solutions ranging in concentrations from 1 to 100 μM. In an assay to determine the inhibitory dissociation constant, Ki, for a given compound, a chromogenic or fluorogenic substrate of thrombin is added to a solution containing a test compound and thrombin; the resulting catalytic activity of the enzyme is spectrophotometrically determined. This assay is well-known to those skilled in the art and is commonly used to determine antithrombotic activity.
The affinity of inhibitors for thrombin was measured according to the procedures described in (DiMaio, et al., J. Biol. Chem., 1990; 265:21698). Inhibition of amidolytic activity of human thrombin was measured fluorometrically using Tos-Gly-Pro-Arg-AMC as a fluorogenic substrate in 50 mM Tris-HCl buffer (pH 7.52 at 37° C.) containing 0.1 M NaCl and 0.1% poly(ethylene glycol) 8000 at room temperature. Buffer substrate and inhibitor were mixed, and the reaction was initiated by adding the enzyme solution. Initial velocities were recorded at several inhibitor and substrate concentrations. Kinetic parameters were determined by fitting the data to a general equation describing enzyme inhibition (Segel, Enzyme Kinetics, Wiley Interscience Publications, 1993). […]

The target of another assay is Factor Xa (Homo sapiens, UniProt P00742). The experiment in a line: Determination of Factor Xa IC50 (chromogenic substrate S2765). The note with it: 60 minutes incubation at room temperature. The assay is classed as biochemical. As for the experimental part:
The ability of compounds to act as inhibitors of Factor Xa catalytic activity is assessed by determination of that concentration of test substance that inhibits by 50% (IC50) the ability of Factor Xa to cleave the chromogenic substrate S2765 (N-CBz-D-Arg-L-Gly-L-Arg-p-nitroanilide.cndot.2 HCl). Typically, Factor Xa in 10 mM HEPES, 100 mM NaCl, 0.05% BSA, and 0.1% PEG-8000 and the test substance in DMSO are incubated for 60 minutes at room temperature. To this mixture is added S2765 and the velocity of S2765 hydrolysis measured by observing the intensity of absorbance at 405 nm over 5 minutes.

Sequence of Factor Xa (P00742 235-488 limits assumed): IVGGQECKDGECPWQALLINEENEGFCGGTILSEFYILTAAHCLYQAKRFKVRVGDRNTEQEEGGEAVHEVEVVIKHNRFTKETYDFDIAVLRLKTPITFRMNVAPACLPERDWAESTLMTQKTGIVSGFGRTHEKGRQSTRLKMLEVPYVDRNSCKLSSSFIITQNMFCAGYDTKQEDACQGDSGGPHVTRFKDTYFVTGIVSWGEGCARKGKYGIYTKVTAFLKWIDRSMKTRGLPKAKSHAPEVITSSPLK
Sequence of Factor Xa (P00742 41-179 limits assumed): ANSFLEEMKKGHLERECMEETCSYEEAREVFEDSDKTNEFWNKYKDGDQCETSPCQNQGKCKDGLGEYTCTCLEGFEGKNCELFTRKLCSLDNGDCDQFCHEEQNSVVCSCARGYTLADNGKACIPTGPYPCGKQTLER

`N=C(N)NCCC[C@H](NC(=O)[C@@H]1CC[C@H]2C(=O)N(CCCc3ccccc3)CC(=O)N12)C(=O)c1nccs1` [Example 11, [6S-[6α(R*),8aα]]-1,4-Dioxo-2-(3-phenyl-propyl)-octahydropyrrolo[1,2-a]pyrazine-6-carboxylic acid [4-guanidino-1-(thiazol-2-carbonyl)-butyl]-amide]: the results for the IC50 at trypsin and at Factor Xa were less than 1 nM and 30 nM, respectively. Further, the “Fold Shift in MOT (mean occlusion time)” value with carotid artery was more than 3.3. At human thrombin, the Ki came out at 3 nM.
